According to ChEMBL document CHEMBL3769343, “Spiromastilactones: A new class of influenza virus inhibitors from deep-sea fungus” (Eur J Med Chem, 2016):
pEC50, pIC50, pKd: −log10 of the molar value. Activity calls are given as the source filed them. The rule behind the calls is not given here.

Legend:
[1] = test system: Influenza B virus; assay: Antiviral activity against influenza B virus B/SZ/155 infected in dog MDCK cells assessed as inhibition of virus induced cytopathic effect after 40 hrs by Cell-Titer-Glo assay; format: functional, organism-based; conditions: B/SZ/155, MDCK
[2] = Cytotoxicity against MDCK cells after 40 hrs by Celltiter-Glo assay; format: cell-based, Canis lupus familiaris; conditions: dog
[3] = test system: Influenza A virus; assay: Antiviral activity against Influenza A virus A/WSN/1933 (H1N1) infected in MDCK cells assessed as protection against virus induced cytopathic effect after 40 hrs by Celltiter-Glo assay; format: functional, organism-based
[4] = test system: Influenza A virus (A/WSN/1933(H1N1)); assay: Binding affinity to Influenza A virus A/WSN/33 (H1N1) HA1 protein assessed as decrease in protein affinity to sialic acid receptor at 5 uM by surface plasmon resonance assay
[5] = test system: Influenza A virus (A/WSN/1933(H1N1)); assay: Binding affinity to Influenza A virus A/WSN/33 (H1N1) HA1 protein assessed as decrease in protein affinity to sialic acid receptor at 0.625 uM by surface plasmon resonance assay
[6] = test system: Influenza A virus (A/WSN/1933(H1N1)); assay: Binding affinity to Influenza A virus A/WSN/33 (H1N1) HA1 protein assessed as decrease in protein affinity to sialic acid receptor at 20 uM by surface plasmon resonance assay relative to control
[7] = Binding affinity to Influenza A virus A/WSN/33 (H1N1) HA1 protein assessed as decrease in protein affinity to sialic acid receptor by surface plasmon resonance assay (reference value: 70 nM); parameters: species or system Influenza A virus (A/WSN/1933(H1N1))
[8] = test system: Influenza A virus (A/WSN/1933(H1N1)); assay: Binding affinity to Influenza A virus A/WSN/33 (H1N1) HA1 protein assessed as decrease in protein affinity to sialic acid receptor at 1.25 uM by surface plasmon resonance assay
[9] = test system: Influenza A virus (A/WSN/1933(H1N1)); assay: Binding affinity to Influenza A virus A/WSN/33 (H1N1) HA1 protein assessed as decrease in protein affinity to sialic acid receptor at 10 uM by surface plasmon resonance assay
[10] = Binding affinity to Influenza A virus A/WSN/33 (H1N1) HA1 protein assessed as decrease in protein affinity to sialic acid receptor by measuring dissociation constant by surface plasmon resonance assay (reference value: 0.001473/Ms); parameters: species or system Influenza A virus (A/WSN/1933(H1N1))
[11] = test system: Influenza A virus (A/WSN/1933(H1N1)); assay: Binding affinity to Influenza A virus A/WSN/33 (H1N1) HA1 protein assessed as decrease in protein affinity to sialic acid receptor at 20 uM by surface plasmon resonance assay
[12] = test system: Influenza A virus (A/WSN/1933(H1N1)); assay: Binding affinity to Influenza A virus A/WSN/33 (H1N1) HA1 protein assessed as decrease in protein affinity to sialic acid receptor by measuring association constant by surface plasmon resonance assay (reference value: 20810/s)
[13] = test system: Influenza A virus (A/WSN/1933(H1N1)); assay: Binding affinity to Influenza A virus A/WSN/33 (H1N1) HA1 protein assessed as decrease in protein affinity to sialic acid receptor at 2.5 uM by surface plasmon resonance assay
[14] = test system: Influenza A virus (A/WSN/1933(H1N1)); assay: Inhibition of Influenza A virus A/WSN/33 (H1N1) HA1 protein assessed as inhibition of virus induced aggregation of chicken erythrocytes after 30 mins
[15] = test system: Influenza A virus; assay: Antiviral activity against Influenza A virus A/WSN/33 (H1N1) infected in dog MDCK cells assessed as reduction in nucleoprotein level at 100 uM measured at 2 to 5 hrs by Western blot analysis relative to control; format: functional, organism-based; conditions: A/WSN/1933(H1N1)
[16] = test system: Influenza A virus; assay: Antiviral activity against Influenza A virus A/WSN/33 (H1N1) assessed as inhibition of viral infection in dog MDCK cells at 50 uM pretreated with virus for 30 mins followed by host cell inoculation for 1 hr measured after 36 hrs; format: functional; conditions: A/WSN/1933(H1N1)
[17] = test system: Influenza A virus; assay: Antiviral activity against Influenza A virus A/WSN/33 (H1N1) infected in human A549 cells assessed as inhibition of (+)cRNA production after 7 hrs by qRT-PCR analysis; format: functional, organism-based; conditions: A/WSN/1933(H1N1)
[18] = test system: Influenza A virus; assay: Antiviral activity against Influenza A virus A/WSN/33 (H1N1) infected in dog MDCK cells assessed as reduction in nucleoprotein level at 100 uM measured over 2 hrs by Western blot analysis relative to control; format: functional, organism-based; conditions: A/WSN/1933(H1N1)
[19] = Binding affinity to Influenza A virus H3N2 HA3 protein by surface plasmon resonance assay
[20] = test system: Influenza A virus; assay: Antiviral activity against Influenza A virus A/WSN/33 (H1N1) infected in human A549 cells assessed as inhibition of (-)vRNA production after 7 hrs by qRT-PCR analysis; format: functional, organism-based; conditions: A/WSN/1933(H1N1)
[21] = Inhibition of Influenza A virus A/WSN/33 (H1N1) HA1 protein by surface plasmon resonance assay; parameters: species or system Influenza A virus (A/WSN/1933(H1N1))
[22] = test system: Influenza A virus; assay: Antiviral activity against Influenza A virus A/WSN/33 (H1N1) infected in dog MDCK cells assessed as reduction in nucleoprotein level at 100 uM measured over 10 hrs by Western blot analysis relative to control; format: functional, organism-based; conditions: A/WSN/1933(H1N1)
[23] = test system: Influenza A virus; assay: Antiviral activity against Influenza A virus A/WSN/33 (H1N1) infected in human A549 cells assessed as inhibition of mRNA of M1 segment production after 7 hrs by qRT-PCR analysis; format: functional, organism-based; conditions: A/WSN/1933(H1N1)
[24] = test system: A549; assay: Binding affinity to Influenza A virus A/WSN/33 (H1N1) HA1 protein assessed as inhibition of virus attachment to human A549 cells at 10 to 50 uM after 1 hr by DAPI staining based immunofluorescence microscopic analysis; format: cell-based; conditions: Influenza A virus (A/WSN/1933(H1N1))
[25] = test system: Influenza A virus (A/WSN/1933(H1N1)); assay: Binding affinity to Influenza A virus A/WSN/33 (H1N1) HA1 protein assessed as decrease in protein affinity to sialic acid receptor at 40 uM by surface plasmon resonance assay relative to control
[26] = test system: Influenza A virus; assay: Antiviral activity against Influenza A virus A/WSN/33 (H1N1) assessed as inhibition of viral infection in dog MDCK cells at 50 uM pretreated with cells for 30 mins followed by exposure to virus for 1 hr measured after 36 hrs; format: functional; conditions: A/WSN/1933(H1N1)
[27] = test system: Influenza A virus; assay: Antiviral activity against Influenza A virus A/WSN/33 (H1N1) assessed as inhibition of viral infection in dog MDCK cells at 50 uM after 36 hrs; format: functional; conditions: A/WSN/1933(H1N1)
[28] = test system: HEK-293T; assay: Inhibition of Influenza A virus RNP infected in HEK293T cells assessed as decrease in ratio of Fluc to Rluc; format: cell-based; conditions: Influenza A virus (A/WSN/1933(H1N1))
[29] = test system: Influenza A virus; assay: Antiviral activity against Influenza A virus A/WSN/33 (H1N1) infected in dog MDCK cells assessed as reduction in nucleoprotein level at 100 uM measured at 8 to 10 hrs by Western blot analysis relative to control; format: functional, organism-based; conditions: A/WSN/1933(H1N1)
[30] = test system: Influenza A virus; assay: Antiviral activity against Influenza A virus A/WSN/33 (H1N1) infected in dog MDCK cells assessed as reduction in nucleoprotein level at 100 uM measured at 5 to 8 hrs by Western blot analysis relative to control; format: functional, organism-based; conditions: A/WSN/1933(H1N1)
[31] = Binding affinity to influenza B virus HA1 protein by surface plasmon resonance assay
[32] = test system: Influenza A virus; assay: Antiviral activity against Influenza A virus A/WSN/33 (H1N1) infected in dog MDCK cells assessed as inhibition of viral nucleoprotein synthesis after 6 hrs by DAPI staining based immunofluorescence microscopy; format: functional, organism-based; conditions: A/WSN/1933(H1N1)
[33] = test system: HeLa; assay: Binding affinity to Influenza A virus A/WSN/33 (H1N1) HA2 protein assessed as polykaryon formation in human HeLa cells preincubated with test compound for 15 mins followed by further test compound addition at pH 4.9 for 15 mins by crystal violet staining-based microscopic analysis; format: cell-based; conditions: Influenza A virus (A/WSN/1933(H1N1))
[34] = test system: Influenza A virus (A/WSN/1933(H1N1)); assay: (§1) Binding affinity to Influenza A virus A/WSN/33 (H1N1) HA1 protein by surface plasmon resonance assay
[35] = test system: HEK-293T; assay: Effect on renilla luciferase expressed in HEK293T cells at 6.25 to 50 uM after 48 hrs; format: cell-based
[36] = as §1; parameters: species or system Influenza A virus (A/WSN/1933(H1N1))

## CCOC(=O)C1=C[C@@H](OC(CC)CC)[C@H](NC(C)=O)[C@@H](N)C1 [OSELTAMIVIR]
[1]
  pEC50: < 4.08
[2]
  CC50 at 40 h: > 100 µM
[3]
  pIC50: 5.00

## COc1cc(/C=C/C(=O)CC(=O)/C=C/c2ccc(O)c(OC)c2)ccc1O [CURCUMIN]
[4]
  Activity: 16.1 RU
[5]
  Activity: 0.8 RU
[6]
  fold change (FC): 8
[7]
  pKd: 6.29
[8]
  Activity: 2.7 RU
[9]
  Activity: 36.4 RU
[10]
  Kd: 0.001351 M⁻¹ s⁻¹
[11]
  Activity: 78.8 RU
[12]
  Ka: 2660 s⁻¹
[13]
  Activity: 6.8 RU

## CCCc1c(Cl)c(O)c(Cl)c(OC)c1Oc1c(Cl)c(O)c(Cl)c2c1C(=O)O[C@@H]2CC
[2]
  CC50 at 40 h: > 100 µM
[3]
  pIC50: 4.65

## CCCc1c(Cl)c(O)cc(OC)c1Oc1c(Cl)c(O)c(Cl)c2c1C(=O)O[C@@H]2CC
[14]
  inhibition: Dose-dependent effect
[15]
  Activity: Active
[16]
  inhibition at 50 µM: 40%
[17]
  inhibition: Dose-dependent effect
[18]
  Activity: Active
[19]
  pKd: 4.74
[20]
  inhibition: Dose-dependent effect
[21]
  pIC50: 5.22
[22]
  Activity: Active
[1]
  pEC50: 4.49
[23]
  inhibition: Dose-dependent effect
[24]
  inhibition: Active
[4]
  Activity: 21 RU
[25]
  fold change (FC): 8
[2]
  CC50 at 40 h: > 100 µM
[26]
  inhibition at 50 µM: 25%
[5]
  Activity: 3.3 RU
[27]
  inhibition at 50 µM: 90%
[28]
  inhibition: Active
[29]
  Activity: inactive
[7]
  pKd: 6.26
[8]
  Activity: 5.4 RU
[3]
  pIC50: 5.22
[30]
  Activity: Active
[9]
  Activity: 44.8 RU
[31]
  pKd: 4.85
[10]
  Kd: 0.00187 M⁻¹ s⁻¹
[11]
  Activity: 98.2 RU
[12]
  Ka: 3420 s⁻¹
[32]
  inhibition: Dose-dependent effect
[33]
  Activity: inactive
[34]
  Ka: 2.3 ×10⁴ /Ms
[35]
  Activity: inactive
[13]
  Activity: 10.3 RU

## CCCc1c(Cl)c(OC)cc(OC)c1Oc1c(Cl)c(O)c(Cl)c2c1C(=O)O[C@@H]2CC
[2]
  CC50 at 40 h: > 50 µM
[3]
  pIC50: 4.79

## CCCc1c(Cl)c(OC)c(Cl)c(O)c1Oc1c(Cl)c(O)c(Cl)c2c1C(=O)O[C@@H]2CC
[2]
  CC50 at 40 h: > 50 µM
[3]
  pIC50: < 4.30

## CCCc1cc(O)c(Cl)c(OC)c1Oc1c(Cl)c(O)c(Cl)c2c1C(=O)O[C@@H]2CC
[21]
  pIC50: 4.94
[2]
  CC50 at 40 h: > 100 µM
[3]
  pIC50: 4.94
[36]
  pKd: 4.26
[34]
  Ka: 0.77 ×10⁴ /Ms

## CCCc1c(Cl)c(OC)c(Cl)c(OC)c1Oc1c(Cl)c(O)c(Cl)c2c1C(=O)O[C@@H]2CC
[2]
  CC50 at 40 h: > 50 µM
[3]
  pIC50: < 4.30

## CCCc1cc(O)cc(O)c1Oc1c(Cl)c(O)c(Cl)c2c1C(=O)O[C@@H]2CC
[2]
  CC50 at 40 h: > 100 µM
[3]
  pIC50: < 4.00

## NC(=O)c1ncn([C@@H]2O[C@H](CO)[C@@H](O)[C@H]2O)n1 [RIBAVIRIN]
[1]
  pEC50: 5.37
[2]
  CC50 at 40 h: > 200 µM
